GI50 and IC50 data for four compounds are collected here from patent US11384075B2, “Quinolinone compounds” (Janssen Pharmaceutica NV, priority 2017, dated 2022).

The target of experiment [1] is T1, NIH/3T3 cells overexpressing FGFR3 WT-TACC3 fusion protein (Homo sapiens, UniProt P22607).
T1 construct: NIH/3T3 FGFR3 WT-TACC3 CTG (IC50); other: 72-hr incubation, CellTiter Glo, starting with 10 μM; fused on or other part: Q9Y6A5 (Transforming acidic coiled-coil-containing protein 3)
Kind of experiment: NIH/3T3 FGFR3 WT-TACC3 cell proliferation assay. Type of experiment: cell-based. The conditions noted are these: 72-hr incubation, CellTiter Glo, starting with 10 μM; read-out: NIH/3T3 FGFR3 WT-TACC3 CTG (IC50). The procedure, abridged: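 Cells seeded overnight, then exposed 72 h at 37 °C to compound in 9-point 4-fold dilutions from 10 μM (0.1% DMSO final). Viability read by CellTiter-Glo luminescence, normalized to survival %; IC50, pIC50 and Hill slope from concentration-response fit.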

Experiment [2] has as its system NIH/3T3 cells overexpressing FGFR3 V555M-TACC3 fusion protein. Kind of experiment: NIH/3T3 FGFR3 V555M-TACC3 cellular phospho-ERK assay (in vitro PD assay). The experiment is classed as cell-based. The following applies: Mus musculus, NIH3T3; 1-hr incubation, AlphaLISA SureFire Ultra p-ERK1/2 (Thr202/Tyr204); read-out: NIH/3T3 FGFR3 V555M-TACC3 pERK (IC50). On the procedure:
NIH/3T3 FGFR3 V555M-TACC3 Cellular Phospho-ERK Assay (In Vitro PD Assay)
50 μL of cell suspension (NIH/3T3 cells overexpressing FGFR3 V555M-TACC3 fusion protein) (total 10,000 cells per well in growth medium (DMEM containing 1% Glutamax, 10% FBS and 1% Pen/Strep)) was seeded in a 384-well plate. After overnight incubation at 37° C. and 5% CO2, 5.5 μL of growth medium containing 10× testing compound was added into cell cultures (10 dose points with 4× serial dilution, starting with 10 μM, 0.1% DMSO final). After 1-hr incubation at 37° C. and 5% CO2, the medium was depleted and AlphaLISA SureFire Ultra p-ERK1/2 (Thr202/Tyr204) Assay Kit (from PerkinElmer) was applied for phospho-ERK level detection according to the kit instructions. The RFUs (relative fluorescence units were measured on EnVision microplate reader (ex. 680 nm, em. 615 nm) and concentration-response curve was plotted using Prism to calculate IC50 (M), pIC50 (−log IC50) and HillSlope value.

Experiment [3] concerns the target T2, human FGFR3 wild type enzyme (cytoplasmic domain) (Homo sapiens, UniProt P22607).
T2 construct: human FGFR3 wild type enzyme (cytoplasmic domain, from Carna Biosciences); purchased Carna Biosciences
The experiment can be described thus: FGFR3 wild type mobility shift assay (enzymatic assay). The conditions noted are these: 75 μM ATP, 50 minutes at 30° C., Caliper EZ reader II. The experiment is classed as biochemical. In short, it runs like this:
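Cytoplasmic domain of human wild-type FGFR3 (0.04 ng/μL) with 75 μM ATP and 1 μM FL-peptide 30, pH 7.4 HEPES/MgCl2 buffer, 1% DMSO, 50 min at 30 °C, EDTA-stopped. Substrate-product conversion read by mobility shift. IC50, pIC50 and Hill slope from 10-point 4-fold dilutions starting at 10 μM.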

pIC50: −log10 of the molar value.

T2 sequence (P22607 397-806 limits assumed): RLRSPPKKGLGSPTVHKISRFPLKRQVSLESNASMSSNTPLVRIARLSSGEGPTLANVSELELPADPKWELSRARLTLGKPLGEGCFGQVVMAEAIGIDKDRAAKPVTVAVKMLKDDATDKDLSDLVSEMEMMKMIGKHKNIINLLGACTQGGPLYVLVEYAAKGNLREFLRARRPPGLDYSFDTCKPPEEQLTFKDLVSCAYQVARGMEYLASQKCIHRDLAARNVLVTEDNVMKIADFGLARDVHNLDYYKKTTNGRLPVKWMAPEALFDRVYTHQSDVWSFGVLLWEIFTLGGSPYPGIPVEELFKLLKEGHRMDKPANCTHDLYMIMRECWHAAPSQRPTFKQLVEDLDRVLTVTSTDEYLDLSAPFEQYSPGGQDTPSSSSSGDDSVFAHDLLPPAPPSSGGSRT
T1 sequence (P22607 whole entry, change not shown, the tested form may be a part): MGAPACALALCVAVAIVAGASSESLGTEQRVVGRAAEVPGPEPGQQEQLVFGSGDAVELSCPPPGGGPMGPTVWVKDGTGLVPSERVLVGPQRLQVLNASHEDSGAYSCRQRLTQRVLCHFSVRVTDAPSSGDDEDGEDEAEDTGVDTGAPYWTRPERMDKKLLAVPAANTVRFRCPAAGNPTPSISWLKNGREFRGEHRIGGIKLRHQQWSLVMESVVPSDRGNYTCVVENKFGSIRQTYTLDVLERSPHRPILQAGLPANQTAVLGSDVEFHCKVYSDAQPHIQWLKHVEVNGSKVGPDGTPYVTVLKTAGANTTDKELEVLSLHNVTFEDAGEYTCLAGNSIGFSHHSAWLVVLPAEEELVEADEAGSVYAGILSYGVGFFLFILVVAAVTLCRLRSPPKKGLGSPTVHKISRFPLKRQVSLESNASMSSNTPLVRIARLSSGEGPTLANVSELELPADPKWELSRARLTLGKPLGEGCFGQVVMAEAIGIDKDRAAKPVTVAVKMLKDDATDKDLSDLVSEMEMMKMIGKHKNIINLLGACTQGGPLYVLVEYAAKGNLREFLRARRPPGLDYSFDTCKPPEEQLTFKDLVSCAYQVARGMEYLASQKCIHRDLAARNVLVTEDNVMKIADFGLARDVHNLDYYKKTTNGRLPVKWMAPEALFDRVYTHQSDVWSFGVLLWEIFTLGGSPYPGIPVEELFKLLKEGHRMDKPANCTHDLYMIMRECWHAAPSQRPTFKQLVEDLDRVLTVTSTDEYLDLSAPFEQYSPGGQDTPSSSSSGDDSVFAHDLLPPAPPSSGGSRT

`C[C@H](Nc1c(-c2nc3ccc(N4CCOCC4)c(F)c3[nH]2)c(=O)[nH]c2ccccc12)c1ccccn1` [Compound 24, (S)-3-(7-fluoro-6-morpholino-1H-benzo[d]imidazol-2-yl)-4-((1-(pyridin-2-yl)ethyl)-amino)quinolin-2(1H)-one]: the GI50 in experiment [1] was 20.2 nM. For the same compound, the results for the pIC50 in experiment [2] and in experiment [3] were 9.02 and 8.66, respectively.

For the compound `C[C@@H]1CN(c2ccc3nc(-c4c(N[C@@H](C)c5ccccn5)c5ccccc5[nH]c4=O)[nH]c3c2)C[C@@H](C)O1` [Compound 21, 3-(6-((2R,6R)-2,6-dimethylmorpholino)-1H-benzo[d]imidazol-2-yl)-4-(((S)-1-(pyridin-2-yl)ethyl)amino)quinolin-2(1H)-one], the GI50 in experiment [1] amounted to 25 nM. Also, the pIC50 in experiment [2] is 8.63; in experiment [3] it was 8.30.

Turning to `C[C@@H]1CN(c2ccc3nc(-c4c(N[C@@H](C)c5ccccn5)c5ccccc5[nH]c4=O)[nH]c3c2)C[C@H](C)O1` [Compound 4, 3-(6-((2S,6R)-2,6-dimethylmorpholino)-1H-benzo[d]imidazol-2-yl)-4-(((S)-1-(pyridin-2-yl)ethyl)amino)quinolin-2(1H)-one], the GI50 in experiment [1] came to 24.8 nM. Also, the pIC50 in experiment [2] was 8.96; in experiment [3] it was 8.59.

For the compound `C[C@H](Nc1c(-c2nc3ccc(N4CCOCC4)cc3[nH]2)c(=O)[nH]c2ccccc12)c1ncccn1` [Compound 2, (S)-3-(6-morpholino-1H-benzo[d]imidazol-2-yl)-4-((1-(pyrimidin-2-yl)ethyl)amino)-quinolin-2(1H)-one], the GI50 in experiment [1] was 3.61 nM. For the same compound, the pIC50 in experiment [2] was 9.02; in experiment [3] it was 9.47.
